Our source for the IC50 values is patent US20240398757A1 (COCRYSTAL PHARMA, INC., priority 2022, published 2024).

Structures are written as SMILES.

The assay deals with T1, SARS2 protease (Severe acute respiratory syndrome coronavirus 2, UniProt P0DTD1).
T1 construct: SARS2 protease was added to a final concentration of 30 nM
Kind of assay: SARS-CoV-2 protease inhibition assay (SARS2 FRET protease assay). It is filed as biochemical. To be noted: IC50 (μM), SARS2 protease 30 nM, peptide substrate 1.3 μM, 120 minutes at 37° C., compounds 20 μM to 0.075 nM.
A word on the IC50: it is the concentration needed to halve the response being measured. Read a low IC50 as greater potency. Regarding `CCNC(=O)C(=O)[C@H](C[C@@H]1CCNC1=O)NC(=O)[C@H](Cc1cccc(Cl)c1)NC(=O)OC(c1ccccc1)C(F)(F)c1cccc(Cl)c1` (some centres unmarked) [Compound A287], 1.06 µM corresponded to half-maximal inhibition (IC50). In turn, `CC(C)C[C@H](NC(=O)O[C@@H](c1ccccc1)C(F)(F)c1cccc(C2CC2)c1)C(=O)N[C@@H](C[C@@H]1CCNC1=O)C(=O)C(=O)NC1CC1` [Compound A288] gave an IC50 of 0.26 µM. In the case of `CCCC[C@H](NC(=O)OC(c1ccccc1)C(F)(F)c1cccc(Cl)c1)C(=O)N[C@H](C=O)Cc1ccc[nH]c1=O` (stereo partly drawn) [Compound A292, 2-(3-chlorophenyl)-2,2-difluoro-1-phenylethyl ((S)-1-oxo-1-(((S)-1-oxo-3-(2-oxo-1,2-dihydropyridin-3-yl)propan-2-yl)amino)hexan-2-yl)carbamate], the IC50 turned out to be 0.159 µM. In turn, `CCOP(=O)(OCC)C(O)[C@H](C[C@@H]1CCNC1=O)NC(=O)[C@H](CC1CCCCC1)NC(=O)O[C@H](c1ccccc1)C(F)(F)c1cccc(Cl)c1` (some centres unmarked) [Compound A293] had an IC50 of 16.1 µM. `CCCC[C@H](NC(=O)OC(c1ccccc1)C(F)(F)c1cccc(Cl)c1)C(=O)N[C@@H](C[C@@H]1CCNC1=O)C(=O)C(=O)NCCNCC` (some centres unmarked) [Compound A294] displayed an IC50 of 0.486 µM.

In the case of `CCCC[C@H](NC(=O)O[C@@H](c1cccnc1)C(F)(F)c1cccc(Cl)c1)C(=O)N[C@@H](C[C@@H]1CCNC1=O)C(=O)C(=O)NC1CC1` [Compound A301], half-maximal inhibition (IC50) was put at 0.0362 µM. The result for `CCCC[C@H](NC(=O)O[C@@H](c1ccncc1)C(F)(F)c1cccc(Cl)c1)C(=O)N[C@@H](C[C@@H]1CCNC1=O)C(=O)C(=O)NC1CC1` [Compound A303] reads 0.055 µM; that for `CCCC[C@H](NC(=O)OC(c1ccn(C)n1)C(F)(F)c1cccc(Cl)c1)C(=O)N[C@H](C=O)C[C@@H]1CCNC1=O` (some centres unmarked) [Compound A305], 0.0004 µM. `CCCC[C@H](NC(=O)OC(c1ccccc1)C(F)(F)c1cccc(Cl)c1)C(=O)NC(CN1CCNC1=O)C(=O)C(=O)NC1CC1` (some centres unmarked) [Compound A306] gave a half-maximal inhibitory concentration (IC50) of 4.41 µM. Take `CC(C)C[C@H](NC(=O)OC(c1ccccc1)C(F)(F)c1cccc(Cl)c1)C(=O)NC(CN1CCNC1=O)C(=O)C(=O)NC1CC1` (some centres unmarked) [Compound A307]: the IC50 was determined as 4.44 µM.

Compound `CC[C@@H](C)C[C@H](NC(=O)O[C@H](c1ccccc1)C(F)(F)c1cccc(Cl)c1)C(=O)N[C@@H](C[C@@H]1CCNC1=O)C(=O)C(=O)NC1CC1` [Compound A311] came in with an IC50 of 0.181 µM. The compound `CC[C@@H](C)C[C@H](NC(=O)O[C@@H](c1ccccc1)C(F)(F)c1cccc(Cl)c1)C(=O)N[C@@H](C[C@@H]1CCNC1=O)C(=O)C(=O)NC1CC1` [Compound A312] had an IC50 of 0.64 µM. In turn, `CCCC[C@H](NC(=O)OC(c1ccn(C)n1)C(F)(F)c1cccc(Cl)c1)C(=O)N[C@@H](C[C@@H]1CCNC1=O)C(=O)C(=O)NCC` (some centres unmarked) [Compound A313] gave an IC50 of 0.139 µM. In the case of `CC(C)C[C@H](NC(=O)OC(c1ccccc1)C(F)(F)c1cccc(C2CCC2)c1)C(=O)N[C@H](C=O)C[C@@H]1CCNC1=O` (some centres unmarked) [Compound A314], the IC50 is 0.001 µM.

For `CC(C)C[C@H](NC(=O)OC(c1ccccc1)C(F)(F)c1cccc(C2CCC2)c1)C(=O)N[C@@H](C[C@@H]1CCNC1=O)C(=O)C(=O)NC1CC1` (some centres unmarked) [Compound A315], the half-inhibitory concentration (IC50) was 0.051 µM. As for `CC(C)C[C@H](NC(=O)O[C@@H](c1ccccc1)C(F)(F)c1cccc(Cl)c1)C(=O)N[C@@H](C[C@@H]1CCNC1=O)C(=O)C(=O)NC1CC1` [Compound A317], half-maximal inhibition (IC50) was put at 0.0004 µM. On to `CCCC[C@H](NC(=O)OC(c1cnn(C)c1)C(F)(F)c1cccc(Cl)c1)C(=O)N[C@@H](C[C@@H]1CCNC1=O)C(=O)C(=O)NCC` (some centres unmarked) [Compound A319], for which the IC50 came out at 0.001 µM. The result for `CCNC(=O)C(=O)[C@H](C[C@@H]1CCNC1=O)NC(=O)[C@@H](CC1(CC)CCC1)NC(=O)O[C@@H](c1ccccc1)C(F)(F)c1cccc(Cl)c1` [Compound A320] reads 0.0001 µM; that for `CCNC(=O)C(=O)[C@H](C[C@@H]1CCNC1=O)NC(=O)[C@H](CC1(CC)CCC1)NC(=O)O[C@H](c1ccccc1)C(F)(F)c1cccc(Cl)c1` [Compound A322], 1.72 µM. `CCNC(=O)C(=O)[C@H](C[C@@H]1CCNC1=O)NC(=O)[C@H](CC1(CC)CCC1)NC(=O)O[C@@H](c1ccccc1)C(F)(F)c1cccc(Cl)c1` [Compound A323] showed an IC50 of 3.84 µM. The result for `CCNC(=O)C(=O)[C@H](C[C@@H]1CCNC1=O)NC(=O)[C@@H](CC1(C)CCC1)NC(=O)O[C@@H](c1ccccc1)C(F)(F)c1cccc(Cl)c1` [Compound A324] reads 0.0003 µM. As to `CCNC(=O)C(=O)[C@H](C[C@@H]1CCNC1=O)NC(=O)[C@H](CC1(C)CCC1)NC(=O)O[C@H](c1ccccc1)C(F)(F)c1cccc(Cl)c1` [Compound A326], the IC50 came out at 0.367 µM. Regarding `CCNC(=O)C(=O)[C@H](C[C@@H]1CCNC1=O)NC(=O)[C@H](CC1(C)CCC1)NC(=O)O[C@@H](c1ccccc1)C(F)(F)c1cccc(Cl)c1` [Compound A327], the IC50 stood at 5.33 µM.
